Reference: patent US20040116336A1, “Peptide derivatives” (priority 2002, published 2004)
Starred links: 1 amine or outer side, 2 acyl side, 3 side chain; linkers in the order of their positions; H or OH if unused. Non-standard residues stand in square brackets, D forms with d. Residues, ends and D or L forms follow the SMILES beside them. Phe(4-Cl) = N[C@@H](Cc1ccc(Cl)cc1)C(=O)O; Adipoyl = O=C(CCCCC(=O)[*:2])[*:1]; Cha = N[C@@H](CC1CCCCC1)C(=O)O; Dap = NC[C@H](N)C(=O)O

Tests used:
APJ [1] = target: T1, APJ (Homo sapiens, UniProt P35414); assay: Receptor binding assay-1 (125I-labeled compound in Reference Example 1, CHO-A10 membrane fraction); conditions: 125I-labeled compound in Reference Example 1 at 100 pM
T1 construct: expressed in transfected cells; host or cells: CHO (CHO-A10; clone 6 for the cAMP assay)
T1 sequence (P35414 1-380): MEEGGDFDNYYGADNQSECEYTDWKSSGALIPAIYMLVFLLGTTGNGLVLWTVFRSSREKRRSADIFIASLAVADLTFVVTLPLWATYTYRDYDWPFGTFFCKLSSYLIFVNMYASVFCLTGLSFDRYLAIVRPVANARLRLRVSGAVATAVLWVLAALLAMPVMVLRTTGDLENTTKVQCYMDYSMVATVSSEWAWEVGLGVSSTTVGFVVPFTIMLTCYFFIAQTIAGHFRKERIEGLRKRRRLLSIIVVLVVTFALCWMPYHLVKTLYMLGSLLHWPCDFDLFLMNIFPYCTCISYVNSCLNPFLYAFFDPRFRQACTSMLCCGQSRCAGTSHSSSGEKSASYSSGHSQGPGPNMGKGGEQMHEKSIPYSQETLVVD
Procedure: (§1) This product was mixed with an equal volume of an assay buffer (50 mM Tris-HCl/pH 7.5, 5 mM EDTA, 0.5 mM PMSF, 20 μg/ml leupeptin, 0.1 μg/ml pepstatin A, 4 μg/ml E-64 (Peptide Research Laboratory, Co.), 0.1% bovine serum albumin) and stored at −30° C. before use.
(§2) CHO-A10 cells were cultured, recovered with PBS containing 5 mM EDTA from a culture vessel, and suspended in the above-mentioned assay buffer not containing bovine serum albumin. The cells were homogenized 3 times at 12,000 rpm for 15 seconds by a Polytron homogenizer (manufactured by Kinematica Inc.) and then centrifuged (1000×g, 4° C., 10 minutes), and the supernatant was recovered. The precipitates were subjected again to the same procedure as above, and the respective supernatants were combined and centrifuged at 100,000×g, 4° C. for 1 hour, to recover precipitates (membrane fraction). The membrane fraction was suspended again in a small amount of the buffer, homogenized with a Teflon homogenizer and stored at −80° C. before use.
(§3) Binding assay was carried out under the following conditions. […] Measurement of non-specific binding was carried out using a well containing 1 μM unlabeled compound in place of the test sample. After the incubation was finished, a cell harvester (Packard) adapted to 96 wells and a filter unit (GF/C, Packard) were used for separation thereby capturing the membrane fraction on the filter. After the filter was sufficiently dried, Microcinti 0 (Packard) was added thereto, and using Top Count (Packard), the amount of the labeled material captured together with the membrane fraction on the filter was measured.

APJ [2] = target: T1, APJ; assay: Receptor binding assay-2 (compound in Reference Example 2 used); conditions: compound in Reference Example 2 used as ligand; read-out: IC50
Procedure: as §1, §2, §3

APJ [3] = target: T1, APJ; assay: Inhibitory activity on forskolin-stimulated cAMP production in CHO-A10 clone 6 cells; type: cell-based; conditions: read-out: EC50
Procedure: Measurement of an Inhibitory Activity on Forskolin-Stimulated cAMP Production
Hanks' balanced salt solution (HBSS) containing 0.2 mM 3-isobutyl-1-methylxanthine (IBMX) and 0.05% bovine serum albumin was prepared as an assay buffer, and each well was washed twice with 500 μl assay buffer and pre-incubated at 37° C. for 30 minutes. Further, each well was washed once with 500 μl assay buffer, and a sample dissolved in the assay buffer containing 1 μM forskolin was added at a volume of 500 μl/well and incubated at 37° C. for 30 minutes. Wells incubated with the assay buffer not containing forskolin were prepared in the same manner in order to determine the basal level of cellular cAMP production, while wells incubated with the assay buffer containing forskolin were also prepared in order to determine the maximum level of cAMP production stimulated with forskolin. After incubation was finished, each well was washed once with 500 μl assay buffer, and 500 μl lysis buffer 1B attached to a cAMP EIA system from Amersham was added to each well, to extract cAMP. According to the protocol of the kit, 100 μl of each extract was used to determine the level of cAMP. For the inhibitory activity of the sample on cAMP production, the difference (inhibited cAMP production) between the maximum level and the level of cAMP in the sample-containing wells was determined, and the inhibitory activity was expressed as percentage relative to the increased level of cAMP production stimulated with forskolin (that is, the difference between the maximum level and basal level), and from this dose-reaction curve, the EC50 was determined.

Row | IC50 (APJ [1]; room temperature […]) [nM] | IC50 (APJ [2]) [nM] | EC50 (APJ [3]) [nM] | IC50 (APJ [1]; room temperature 1.5 hours) [nM] | SMILES
1 | 1.4 | 0.046 | 0.55 | – | CC(C)C[C@H](NC(=O)[C@H](CCCNC(=N)N)NC(=O)[C@@H]1CCCN1C(=O)[C@H](CCCNC(=N)N)NC(=O)[C@H](CCC(N)=O)NC(=O)[C@H](CCCNC(=N)N)NC(=O)[C@@H](N)CCCNC(=N)N)C(=O)N[C@@H](CO)C(=O)N[C@@H](C)C(=O)N[C@@H](CCCNC(=N)N)C(=O)NCC(=O)N1CCC[C@H]1C(=O)N[C@@H](CC1CCCCC1)C(=O)O [Compound in Ex. 6]
2 | 2.5 | 0.023 | 0.18 | – | CSCC[C@H](NC(=O)[C@@H]1CCCN1C(=O)CNC(=O)[C@H](CCCNC(=N)N)NC(=O)[C@H](C)NC(=O)[C@H](CO)NC(=O)[C@H](CC(C)C)NC(=O)[C@H](CCCNC(=N)N)NC(=O)[C@@H]1CCCN1C(=O)[C@H](CCCNC(=N)N)NC(=O)[C@H](CCC(N)=O)NC(=O)[C@H](CCCNC(=N)N)NC(=O)[C@@H](N)CCCNC(=N)N)C(=O)O [Compound in Ex. 18]
3 | 9.2 | 0.09 | 0.31 | – | CSCC[C@H](NC(=O)[C@@H]1CCCN1C(=O)CNC(=O)[C@H](CCCCN)NC(=O)[C@H](Cc1c[nH]cn1)NC(=O)[C@H](CO)NC(=O)[C@H](CC(C)C)NC(=O)[C@H](CCCNC(=N)N)NC(=O)[C@@H]1CCCN1C(=O)[C@H](CCCNC(=N)N)NC(=O)[C@H](CCCCN)NC(=O)[C@H](CCCNC(=N)N)NC(=O)[C@@H](N)CCCNC(=N)N)C(=O)N1CCC[C@H]1C(=O)N[C@@H](Cc1ccccc1)C(=O)O [Compound in Ex. 23]
4 | 2.7 | 0.027 | 0.28 | – | CCCC[C@H](NC(=O)[C@@H]1CCCN1C(=O)CNC(=O)[C@H](CCCCN)NC(=O)[C@H](Cc1c[nH]cn1)NC(=O)[C@H](CO)NC(=O)[C@H](CC(C)C)NC(=O)[C@H](CCCNC(=N)N)NC(=O)[C@@H]1CCCN1C(=O)[C@H](CCCNC(=N)N)NC(=O)[C@H](CCC(N)=O)NC(=O)[C@H](CCCNC(=N)N)NC(=O)[C@@H](N)CCCNC(=N)N)C(=O)N1CCC[C@H]1C(=O)N[C@@H](Cc1ccc(O)cc1)C(=O)O [Compound in Ex. 14]
5 | – | 0.039 | 0.34 | 13 | CSCC[C@H](NC(=O)[C@@H]1CCCN1C(=O)CNC(=O)[C@H](CCCCN)NC(=O)[C@H](Cc1c[nH]cn1)NC(=O)[C@H](CO)NC(=O)[C@H](CC(C)C)NC(=O)[C@H](CCCNC(=N)N)NC(=O)[C@@H]1CCCN1C(=O)[C@@H](N)CCCNC(=N)N)C(=O)N1CCC[C@H]1C(=O)N[C@@H](Cc1ccc(Cl)cc1)C(=O)O [Compound in Ex. 8]
6 | – | 0.13 | 0.42 | – | CC(C)C[C@H](NC(=O)[C@H](CCCNC(=N)N)NC(=O)[C@@H]1CCCN1C(=O)[C@@H](N)CCCNC(=N)N)C(=O)N[C@@H](CO)C(=O)N[C@@H](CNC(=O)CCCCC(=O)O)C(=O)N[C@@H](CCCNC(=N)N)C(=O)NCC(=O)N1CCC[C@H]1C(=O)N[C@@H](CC1CCCCC1)C(=O)N1CCC[C@H]1C(=O)N[C@@H](Cc1ccc(Cl)cc1)C(=O)O [Compound in Ex. 68, Arg-Pro-Arg-Leu-Ser-Dap(Adi)-Arg-Gly-Pro-Cha-Pro-Phe(Cl)] (H-RPRLS[Dap](Adipoyl)RGP[Cha]P[Phe(4-Cl)]-OH; N-terminus and C-terminus assumed)
7 | – | 0.62 | 0.48 | – | CC(C)C[C@H](NC(=O)[C@H](CCCNC(=N)N)NC(=O)[C@@H]1CCCN1C(=O)[C@H](CCCNC(=N)N)NC(=O)[C@H](CCC(N)=O)NC(=O)[C@H](CCCNC(=N)N)NC(=O)[C@@H](N)CCCNC(=N)N)C(=O)N[C@@H](CO)C(=O)N[C@@H](Cc1c[nH]cn1)C(=O)N[C@@H](CCCCN)C(=O)NCC(=O)N1CCC[C@H]1C(=O)N[C@@H](CC[S+](C)[O-])C(=O)O (stereo partly drawn) [Compound in Ex. 20]
8 | – | 0.59 | 0.16 | – | CSCC[C@H](NC(=O)[C@@H]1CCCN1C(=O)CNC(=O)[C@H](CCCCN)NC(=O)[C@H](CC(C)C)NC(=O)[C@H](CO)NC(=O)[C@H](CC(C)C)NC(=O)[C@H](CCCNC(=N)N)NC(=O)[C@@H]1CCCN1C(=O)[C@H](CCCNC(=N)N)NC(=O)[C@@H]1CCC(=O)N1)C(=O)N1CCC[C@H]1C(=O)N[C@@H](Cc1ccccc1)C(=O)O [Compound in Ex. 38]
